Measured values published in PubChem BioAssay AID1963866 (Molecular Pharmacology Branch, DTP, NCI, 2024).

Tested on: PDC KRAS tumor spheroids with HUVEC/MSC, viability
Test: Anticancer human tumor 349418-098-R-PDC patient-derived lung adenocarcinoma cell line growth inhibition [KRAS2]
Conditions: for IC50: curve of first compound; for viability, T/C: stronger effect = lower value
Description: Multicellular complex tumor spheroid response to RAS pathway inhibitors in combination with a targeted agents in patient-derived cell lines with oncogenic KRAS variants from multiple cancer types
A high-throughput screen of multi-cell type tumor spheroids was designed to identify active combinations of targeted small molecules and KRAS pathway inhibitors. Complex spheroids include a stromal component modeled by human endothelial cells (HUVEC) and fibroblasts modeled by human mesenchymal stem cells (MSCs). The concentration ranges selected for each drug and investigational agent were based upon clinically achievable concentrations if the clinical Cmax of the agent was known.
Compounds. The drugs and investigational agents: BI-3406 (NSC825286), BAY-293 (NSC824723), batoprotafib (TNO155; NSC825523), sotorasib (AMG 510; NSC818433), MRTX1257 (NSC819558), elimusertib (BAY 1895344; NSC800525), molibresib (GSK525762; NSC774829), temuterkib (LY3214996; NSC803410), venetoclax (NSC766270), alisertib (NSC759677), olaparib (NSC753686), talazoparib (NSC767125), erdafitinib (NSC781556), ipatasertib (NSC767898), cabozantinib (NSC761068), nintedanib (NSC756659), abemaciclib (NSC768073), docetaxel (NSC628503), trametinib (NSC758246), and sapanisertib (NSC764658) were obtained from the National Cancer Institute (NCI) Developmental Therapeutics Program Chemical Repository. The FDA-approved anticancer drug set is available from the Developmental Therapeutics Program. […] The stock solutions were prepared in dimethyl sulfoxide (DMSO, Sigma-Aldrich, St. Louis, MO, cat. D2650) at 800-fold the tested concentration and stored at -70 degrees C prior to their use. All drugs and investigational agents were tested over a range starting from a high concentration at or near the clinical Cmax and decreasing in half-log increments. If the clinical Cmax for an agent had not been determined, the highest concentration tested was 10 microM.
Cell Culture. All cells were maintained in an incubator at 37 degrees C and 5% CO2 with 95% humidity. The PDC lines were cultured according to standard operating procedures established by the NCI PDMR (https://pdmr.cancer.gov/sops/default.htm). Briefly, all PDCs were thawed and cultured in Matrigel-coated flasks prepared with a working solution of 1X Ham's F-12 nutrient mix, without supplementation (Invitrogen, Waltham, MA, cat. 11765054), 100 U/mL penicillin-streptomycin (Invitrogen, cat. 15140122), and 2.5% Matrigel (Corning Inc., Corning, NY, cat. 354248) for the first three passages. All PDCs were cultured in complete DMEM/F-12 media containing advanced DMEM/F-12 (Invitrogen, cat. 12634028), 4.9% defined fetal bovine serum, heat inactivated (HyClone Laboratories Inc., Logan, UT, cat. SH30070.03HI), 389 ng/mL hydrocortisone (Sigma-Aldrich, cat. H4001), 9.7 ng/mL human EGF recombinant protein (Invitrogen, cat. PHG0313), 23.4 microg/mL adenine (Sigma-Aldrich, cat. A2786), 97.3 U/mL penicillin-streptomycin (Invitrogen, cat. 15140122), 1.9 mM L-glutamine (Invitrogen, cat. 25030081), and 9.7 microM Y-27632 dihydrochloride (Tocris Bioscience, Bristol, United Kingdom, cat. 1254). The PDCs were cultured in complete DMEM/F12 media without 9.7 microM Y-27632 dihydrochloride for at least two passages prior to the screen. The established cell line HOP-62 was cultured in RPMI 1640 medium, HEPES (Invitrogen, cat. 22400105) with 10% defined fetal bovine serum (HyClone Laboratories Inc., cat. SH30070.03) and 2 mM L-glutamine (Invitrogen, cat. 25030081). The pooled donor HUVEC were cultured in endothelial cell growth medium 2 (PromoCell, Heidelberg, Germany, cat. C-22011) and the hMSC were cultured in mesenchymal stem cell growth medium 2 (PromoCell, cat. C-28009). For all experiments, HUVEC and hMSC were used at passages </=5, while the malignant cell lines were used at passages </=15. […]

[1] = second compound 0.1 µM, first compound 0.01 µM
[2] = second compound 0.1 µM, first compound 0.0316 µM
[3] = second compound 0.1 µM, first compound 0.1 µM
[4] = second compound 0.1 µM, first compound 0.316 µM
[5] = second compound 0.1 µM, first compound 1 µM
[6] = second compound 0.1 µM, first compound 3.16 µM
[7] = second compound 0.316 µM, first compound 0.01 µM
[8] = second compound 0.316 µM, first compound 0.0316 µM
[9] = second compound 0.316 µM, first compound 0.1 µM
[10] = second compound 0.316 µM, first compound 0.316 µM
[11] = second compound 0.316 µM, first compound 1 µM
[12] = second compound 0.316 µM, first compound 3.16 µM
[13] = second compound 1 µM, first compound 0.01 µM
[14] = second compound 1 µM, first compound 0.0316 µM
[15] = second compound 1 µM, first compound 0.1 µM
[16] = second compound 1 µM, first compound 0.316 µM
[17] = second compound 1 µM, first compound 1 µM
[18] = second compound 1 µM, first compound 3.16 µM
[19] = second compound 3.16 µM, first compound 0.01 µM
[20] = second compound 3.16 µM, first compound 0.0316 µM
[21] = second compound 3.16 µM, first compound 0.1 µM
[22] = second compound 3.16 µM, first compound 0.316 µM
[23] = second compound 3.16 µM, first compound 1 µM
[24] = second compound 3.16 µM, first compound 3.16 µM
[25] = second compound 10 µM, first compound 0.01 µM
[26] = second compound 10 µM, first compound 0.0316 µM
[27] = second compound 10 µM, first compound 0.1 µM
[28] = second compound 10 µM, first compound 0.316 µM
[29] = second compound 10 µM, first compound 1 µM
[30] = second compound 10 µM, first compound 3.16 µM
[31] = second compound 0.1 µM, first compound 10 µM
[32] = second compound 0.316 µM, first compound 10 µM
[33] = second compound 1 µM, first compound 10 µM
[34] = second compound 3.16 µM, first compound 10 µM
[35] = second compound 10 µM, first compound 10 µM
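Also: spheroids exposed to compounds for seven days before readout.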

CC(=O)OC12COC1CC(O)C1(C)C(=O)C(O)C3=C(C)C(OC(=O)C(O)C(NC(=O)OC(C)(C)C)c4ccccc4)CC(O)(C(OC(=O)c4ccccc4)C21)C3(C)C (stereo not given) + C=CC(=O)N1CCN(c2nc(=O)n(-c3c(C)ccnc3C(C)C)c3nc(-c4c(O)cccc4F)c(F)cc23)C(C)C1
IC50 (second compound 0.1 µM): < 10 nM | IC50 (second compound 0.316 µM): < 10 nM | IC50 (second compound 1 µM): < 10 nM | IC50 (second compound 3.16 µM): < 10 nM | IC50 (second compound 10 µM): < 10 nM | viability, T/C [1]: 11.3% | viability, T/C [2]: 12.3% | viability, T/C [3]: 16% | viability, T/C [4]: 14.9% | viability, T/C [5]: 24% | viability, T/C [6]: 21.2% | viability, T/C [7]: 10.2% | viability, T/C [8]: 12.7% | viability, T/C [9]: 16.7% | viability, T/C [10]: 17.9% | viability, T/C [11]: 18% | viability, T/C [12]: 20.1% | viability, T/C [13]: 11.1% | viability, T/C [14]: 14.2% | viability, T/C [15]: 11.6% | viability, T/C [16]: 14.8% | viability, T/C [17]: 20.5% | viability, T/C [18]: 18.3% | viability, T/C [19]: 9.17% | viability, T/C [20]: 13.1% | viability, T/C [21]: 13.4% | viability, T/C [22]: 12.6% | viability, T/C [23]: 15.5% | viability, T/C [24]: 15.9% | viability, T/C [25]: 9.5% | viability, T/C [26]: 11% | viability, T/C [27]: 9.81% | viability, T/C [28]: 9.76% | viability, T/C [29]: 11.7% | viability, T/C [30]: 11.9%

CN(C)C/C=C/C(=O)Nc1cc2c(Nc3ccc(F)c(Cl)c3)ncnc2cc1O[C@H]1CCOC1 + C=CC(=O)N1CCN(c2nc(=O)n(-c3c(C)ccnc3C(C)C)c3nc(-c4c(O)cccc4F)c(F)cc23)C(C)C1
IC50 (second compound 0.1 µM): > 100 nM | IC50 (second compound 0.316 µM): > 100 nM | IC50 (second compound 1 µM): > 100 nM | IC50 (second compound 3.16 µM): > 100 nM | IC50 (second compound 10 µM): < 0.316 nM | viability, T/C (second compound 0.1 µM, first compound 0.000316 µM): 104% | viability, T/C (second compound 0.1 µM, first compound 0.001 µM): 97.8% | viability, T/C (second compound 0.1 µM, first compound 0.00316 µM): 98.7% | viability, T/C [1]: 83.3% | viability, T/C [2]: 99.1% | viability, T/C [3]: 94% | viability, T/C (second compound 0.316 µM, first compound 0.000316 µM): 96.6% | viability, T/C (second compound 0.316 µM, first compound 0.001 µM): 106% | viability, T/C (second compound 0.316 µM, first compound 0.00316 µM): 95.1% | viability, T/C [7]: 91.7% | viability, T/C [8]: 100% | viability, T/C [9]: 87.5% | viability, T/C (second compound 1 µM, first compound 0.000316 µM): 90.6% | viability, T/C (second compound 1 µM, first compound 0.001 µM): 85.6% | viability, T/C (second compound 1 µM, first compound 0.00316 µM): 81% | viability, T/C [13]: 95.3% | viability, T/C [14]: 80.5% | viability, T/C [15]: 78.2% | viability, T/C (second compound 3.16 µM, first compound 0.000316 µM): 78% | viability, T/C (second compound 3.16 µM, first compound 0.001 µM): 68.4% | viability, T/C (second compound 3.16 µM, first compound 0.00316 µM): 83.8% | viability, T/C [19]: 59.5% | viability, T/C [20]: 55.2% | viability, T/C [21]: 64.9% | viability, T/C (second compound 10 µM, first compound 0.000316 µM): 40.9% | viability, T/C (second compound 10 µM, first compound 0.001 µM): 40.2% | viability, T/C (second compound 10 µM, first compound 0.00316 µM): 35.9% | viability, T/C [25]: 32.3% | viability, T/C [26]: 27.5% | viability, T/C [27]: 32.6%

COC(=O)c1ccc2c(C(=Nc3ccc(N(C)C(=O)CN4CCN(C)CC4)cc3)c3ccccc3)c(O)[nH]c2c1 + C=CC(=O)N1CCN(c2nc(=O)n(-c3c(C)ccnc3C(C)C)c3nc(-c4c(O)cccc4F)c(F)cc23)C(C)C1
IC50 (second compound 0.1 µM): 157 nM | IC50 (second compound 0.316 µM): 226 nM | IC50 (second compound 1 µM): 242 nM | IC50 (second compound 3.16 µM): 106 nM | IC50 (second compound 10 µM): < 31.6 nM | viability, T/C [2]: 88.1% | viability, T/C [3]: 49.6% | viability, T/C [4]: 47.2% | viability, T/C [5]: 26.5% | viability, T/C [6]: 14.8% | viability, T/C [31]: 15.1% | viability, T/C [8]: 94.5% | viability, T/C [9]: 63.1% | viability, T/C [10]: 47.1% | viability, T/C [11]: 27.9% | viability, T/C [12]: 17.2% | viability, T/C [32]: 15.5% | viability, T/C [14]: 107% | viability, T/C [15]: 73.2% | viability, T/C [16]: 39.8% | viability, T/C [17]: 30.4% | viability, T/C [18]: 18.1% | viability, T/C [33]: 13.7% | viability, T/C [20]: 72.4% | viability, T/C [21]: 47.9% | viability, T/C [22]: 35.7% | viability, T/C [23]: 28.4% | viability, T/C [24]: 11.6% | viability, T/C [34]: 10.9% | viability, T/C [26]: 40% | viability, T/C [27]: 35.2% | viability, T/C [28]: 31.4% | viability, T/C [29]: 25.3% | viability, T/C [30]: 5.38% | viability, T/C [35]: 1.56%

O=C(c1cc(Cc2n[nH]c(=O)c3ccccc23)ccc1F)N1CCN(C(=O)C2CC2)CC1 + C=CC(=O)N1CCN(c2nc(=O)n(-c3c(C)ccnc3C(C)C)c3nc(-c4c(O)cccc4F)c(F)cc23)C(C)C1
IC50 (second compound 0.1 µM): 95.8 nM | IC50 (second compound 0.316 µM): 350 nM | IC50 (second compound 1 µM): 1630 nM | IC50 (second compound 3.16 µM): 1310 nM | IC50 (second compound 10 µM): < 31.6 nM | viability, T/C [2]: 84.6% | viability, T/C [3]: 47.1% | viability, T/C [4]: 32.3% | viability, T/C [5]: 21.4% | viability, T/C [6]: 17.5% | viability, T/C [31]: 14.8% | viability, T/C [8]: 92.6% | viability, T/C [9]: 86.3% | viability, T/C [10]: 52.2% | viability, T/C [11]: 26.3% | viability, T/C [12]: 30% | viability, T/C [32]: 17.2% | viability, T/C [14]: 100% | viability, T/C [15]: 92.8% | viability, T/C [16]: 83.1% | viability, T/C [17]: 71.2% | viability, T/C [18]: 20.6% | viability, T/C [33]: 20.9% | viability, T/C [20]: 68.7% | viability, T/C [21]: 67.2% | viability, T/C [22]: 75.8% | viability, T/C [23]: 51.9% | viability, T/C [24]: 33.7% | viability, T/C [34]: 18.3% | viability, T/C [26]: 42% | viability, T/C [27]: 43.9% | viability, T/C [28]: 36.3% | viability, T/C [29]: 27% | viability, T/C [30]: 29.2% | viability, T/C [35]: 14%
